Measurements: patent US20200172975A1, “Cell-Free microRNA Signatures of Pancreatic Islet Beta Cell Death” (THE UNIVERSITY OF SYDNEY, priority 2017, published 2020)

System: new-onset T1D individuals
Experiment: Clinical study of ingested interferon-α: residual C-peptide and microRNA signature of beta cell death
Type: in vivo, human
Source text: In order to assess whether microRNAs could predict treatment efficacy, microRNAs were profiled from a de-identified clinical study set of samples from new-onset T1D individuals. These individuals received oral interferon-α at two doses as a therapy to preserve beta cell mass. The effect of ingested interferon-α on residual C-peptide (a measure of beta cell mass) at one year following treatment with 5000 units, 30,000 units or placebo was investigated.
Treatment groups are shown on the X-axis. The remaining beta-cell function measured as circulating C-peptide levels at 1 year (relative to baseline) are plotted on Y-axis (adjusted means, vertical bars denote 0.95 confidence intervals).

interferon-α
remaining beta-cell function measured as circulating C-peptide levels at 1 year (relative to baseline) (30,000 units ingested IFN treatment group as compared to the Control group, FIG. 13): significant preservation of islet beta cell mass
miRNA signature of beta cell death (abundance) (30,000 units ingested IFN treatment group, 12 months from study baseline): lower abundance
microRNA signature of beta cell death (individuals showing the highest preservation of beta-cell mass at one year of treatment, FIG. 14): decreased
